Assay results from patent EP4635969A1, “NOVEL GLUCOCORTICOID, METHOD FOR PREPARING SAME, AND USE THEREOF” (Tianjin Pharmaceutical Biotechnology Co., Ltd., priority 2022, dated 2024).

Tests used:
[1] = tested on: dry eye syndrome model New Zealand rabbits; test: Dry eye syndrome experiment (benzalkonium chloride model): tear secretion test with phenol red cotton threads; type: in vivo, male New Zealand White rabbits; details: for tear secretion: compared with the model group
Method: Positive control drug: Fluorometholone Eye Drops (specification: 5 mL/5 mg; Santen Pharmaceutical (CHINA) Co., Ltd.; Lot No.: 1FM6625) was used as the positive control drug and stored at room temperature protected from light until use.
Thirty male New Zealand White rabbits (conventional grade) were prepared. Six rabbits were randomly selected as the blank control group, and the remaining animals were administered 0.1% benzalkonium chloride to the left eye twice daily (morning and evening) , 10 µL/animal each time. On day 6 of modeling, tear secretion was measured using phenol red cotton threads to determine whether the model was successfully established. […] During the administration, all animals except the blank control group were administered 10 µL of 0.1% benzalkonium chloride to the left eye once daily to maintain dry eye symptoms..
• Test time: D3, D7, D15; • Test animals: All animals were tested before grouping; all enrolled surviving animals were tested after administration; • Test method: Tear secretion was measured using phenol red cotton threads. The tear secretion test paper was folded and placed at the middle and outer 1/3 of the rabbit palpebral conjunctival sac for 1 min. The test paper was then removed, observed, and recorded for its wetting length. The test was repeated 3 times, and the values were averaged.
The normality and homogeneity of variance were tested by Levene's test. If there was no statistical significance (P > 0.05), one-way analysis of variance (ANOVA) was used for statistical analysis. If ANOVA was statistically significant (P ≤ 0.05), LSD test (parametric method) was used for comparative analysis. If the variance was heterogeneous (P ≤ 0.05), Kruskal-Wallis test was used. If the Kruskal-Wallis test was statistically significant (P ≤ 0.05), Dunnett's test (nonparametric method) was used for comparative analysis.

[2] = tested on: psoriasis model mice; test: Psoriasis experiment (imiquimod model): skin lesion (PASI) score; type: in vivo; details: for PASI scores: compared with the model group; for PASI score: day 8 of modeling, 0.2 g cream per mouse daily for 7 days (compounds 1 mg/g, fluticasone propionate 0.5 mg/g)
Method: Positive control drug: Fluticasone Propionate Cream (specification: 0.05% × 15 g, Zhejiang Xianju Pharmaceutical Co. Ltd., Lot No. 211106), stored at room temperature protected from light until use.
Adult mice were selected, and the skin of 2 cm × 3 cm on the back of mice was locally depilated. The mice in the model group and drug administration group were applied with 62.5 mg of 5% imiquimod cream on their back for modeling, while the mice in the blank control group were applied with medical petroleum jelly on their back daily. The above procedures were performed once a day for 7 consecutive days.
The mice in the drug administration group were applied with the corresponding drugs on their backs daily at a dose of 0.2 g per mouse, while the blank control group and the model group were only applied with 0.2 g of the test sample drug matrix. One hour after drug administration, the drugs were wiped off with sterile cotton swabs, followed by the application of imiquimod. The above procedures were performed once a day for 7 consecutive days.
Referring to the clinical Psoriasis Area and Severity Index (PASI) scoring criteria, erythema, scaling, and thickness at the skin lesion sites were evaluated on a 0-4 scale on day 8 of modeling, and the total score was obtained by summing the three items.
• (1) Erythema: a score of 0 points indicates no erythema, a score of 1 point indicates erythema appearing light red, a score of 2 points indicates erythema appearing red, a score of 3 points indicates erythema appearing dark red, and a score of 4 points indicates erythema appearing extremely deep red; • (2) Scaling: a score of 0 points indicates no scaling on the surface, a score of 1 point indicates partial skin lesions covered with scaling, a score of 2 points indicates most skin lesions covered with scaling, a score of 3 points indicates almost all skin lesions covered with scaling in layers, and a score of 4 points indicates all skin lesions covered with scaling; • (3) Thickness: a score of 0 points indicates skin lesions flush with normal skin, a score of 1 point indicates skin lesions slightly elevated above normal skin surface, a score of 2 points indicates moderate elevation of skin lesions, a score of 3 points indicates thickened skin lesions with obvious elevation, and a score of 4 points indicates highly thickened skin lesions with prominent elevation.
Statistical analysis was performed using SPSS software, and the results were expressed as mean ± standard deviation. One-way ANOVA was used for intergroup comparisons. For data with homogeneous variance, the LSD test was used; for data with heterogeneous variance, the Dunnett-t test was used. A value of P < 0.05 was considered statistically significant.

[3] = tested on: intraocular pressure of guinea pigs; test: Adverse reactions of continuous ocular administration: intraocular pressure; type: in vivo; details: for Intraocular pressure of guinea pigs (mmHg) D0: D0, before administration; for Intraocular pressure of guinea pigs (mmHg) D0 / Intraocular pressure of guinea pigs (mmHg) D7 / Intraocular pressure of guinea pigs (mmHg) D14 / Intraocular pressure of guinea pigs (mmHg) D21 / Intraocular pressure of guinea pigs (mmHg) D28: 50 µL/eye (compounds and fluorometholone 1 mg/mL, loteprednol 5 mg/mL)
Method: Pharmacological Example 9: Experiment on Adverse Reactions of Continuous Ocular Administration in Guinea Pigs
Test samples: Compounds 17 and 23 were prepared as 5 mg/5 mL ophthalmic suspensions with reference to the formulation of Fluorometholone Eye Drops, and stored at room temperature protected from light until use.
Positive control drug: Fluorometholone Eye Drops (specification: 5 mL/5 mg; Santen Pharmaceutical (CHINA) Co., Ltd.; Lot No.: 1FM6545), Loteprednol Etabonate Eye Drops (specification 0.5% (5 mg/mL); Shandong Bausch & Lomb Freda Pharmaceutical Co., Ltd; Lot No. 386521), stored at room temperature protected from light until use.
Animals: 50 guinea pigs, conventional grade, with an equal number of males and females, weighing 300-350 g..
Animal grouping: After 5 days of adaptive feeding, the guinea pigs were randomly divided into 5 groups based on body weight. Group 1 was the blank control group, and 50 µL of normal saline was dropped into the eyes (bilateral) of the guinea pigs. Groups 2 to 5 were the fluorometholone group, loteprednol group, compound 17 group, and compound 23 group, respectively, and the corresponding drugs were dropped into the eyes (bilateral) of the guinea pigs. Table 19. Animal grouping and drug administration dosages for the experiment on adverse reactions of continuous ocular administration in guinea pigs
Intraocular pressure measurement time: The intraocular pressure of animals in each group was measured before administration and on days 7, 14, 21, and 28 post-administration.

[4] = tested on: inflammatory bowel disease model rats; test: Inflammatory bowel disease experiment (TNBS model): macroscopic injury score of the colon; type: in vivo; details: for inflammatory response on the intestinal surface / intestinal symptoms: compared with the model group
Method: Pharmacological Example 7: Pharmacodynamic Experiment on Inflammatory Bowel Disease in Rats
Test samples: The jet-milled compounds 23 and 34 were accurately weighed and prepared as 2 mg/mL clear solutions using anhydrous ethanol, respectively. The solutions were then diluted to 0.2 mg/mL with double-distilled water as the test samples, and stored at room temperature protected from light until use.
Animals in Groups 2 to 5 were subjected to trinitrobenzene sulfonic acid (TNBS) modeling as follows: A 5% TNBS aqueous solution was adjusted to 20 mg/mL TNBS (50% ethanol solution) with alcohol and water. After fasting for 24 h, the rats were anesthetized using an inhalation anesthesia machine. A silicone hose was inserted approximately 8 cm into the anus, and then TNBS was injected at a dose of 50 mg/kg. After injection, the rats were placed vertically for 1 min to prevent the backflow of TNBS solution. Then, the rats were placed into their cages for observation until the animals recovered.
Drug administration started one day before modeling, with one dose administered 1 hour before modeling and then once a day for 5 consecutive days. […] Table 14. Animal grouping and drug administration dosages
The experiment ended on day 5 after TNBS modeling. After isoflurane anesthesia, blood was collected from the hearts, and the rats were euthanized. The abdominal cavity was rapidly opened, and the macroscopic injury scoring of the colon in rats was performed based on the adhesion, obstruction, thickening of the colonic wall, colonic congestion, and necrosis in the colon area. After clearing the colonic contents, the colonic samples were longitudinally incised. The proximal 2/3 of the colon was excised, prepared into Swiss rolls, and stored in 4% neutral buffered formalin for histopathological analysis. Tissues were trimmed, dehydrated, paraffin-embedded, and sectioned (approximately 5 µm thickness), stained with hematoxylin-eosin (HE), and observed for pathological changes. Pathologists performed blind scoring of colonic lesions.
Quantitative indices were first subjected to Bartlett's test for homogeneity of variance. When the variance was homogeneous (P > 0.05), one-way analysis of variance (ANOVA) was used for a statistical test; if there was statistical significance (P ≤ 0.05), Dunnett's t-test (Dunnett method) was used to compare intergroup differences; if there was no statistical significance (P > 0.05), the statistical analysis was concluded. When the variance was heterogeneous (P ≤ 0.05), Kruskal-Wallis H rank-sum test (K-W method) was used for statistical analysis: if there was statistical significance (P ≤ 0.05), Mann-Whitney U test (M-W method) was further performed to compare intergroup differences; if there was no statistical significance (P > 0.05), the statistical analysis was concluded.

[5] = tested on: inflammatory cytokines IL-6 and IL-12; test: Anti-asthma pharmacodynamic experiment: inflammatory cytokines in bronchoalveolar lavage fluid (ELISA); type: in vivo, female BALB/c mice; details: for Effects on inflammatory cytokines in bronchoalveolar lavage fluid of mice: compared with the model group
Method: Pharmacological Example 4: Pharmacodynamic Experiment on Anti-Asthma
The suspensions were stored at room temperature protected from light until use.
Positive control drug: Budesonide Suspension for Inhalation (specification: 2 mL: 1 mg; AstraZeneca Inc.; Lot No. : 327392) was diluted with injection-grade sodium chloride solution to 0.3 mg/ml as the positive control drug, and stored at room temperature protected from light until use.
Sixty female BALB/c mice underwent a one-week adaptive feeding period. Ten mice were randomly selected as the blank control group, while 50 mice were selected to establish asthma models.
From days 21 to 23 after sensitization, the mice in the model group and drug administration group were exposed to a 30-minute aerosol challenge with 5% OVA, while the mice in the blank control group were exposed to normal saline aerosol for the same duration.
At the end of airway hyperresponsiveness testing in mice, the mice were euthanized by cervical dislocation and fixed on a dissection tray. The abdomens and thoracic cavities of the mice were opened, and the skin and excess tissues of the neck were excised to expose the trachea of the mice. A small incision was made transversely on the trachea with a small scissors. A pre-treated 1 mL syringe needle was inserted and fastened with surgical thread. A 1 mL syringe was used to slowly inject 0.5 mL of pre-chilled phosphate-buffered saline (PBS) into the lungs of the mice, followed by slow aspiration. Each mouse was lavaged once, and a total of approximately 0.4 ml of lavage fluid was collected. The bronchoalveolar lavage fluid was centrifuged at 3000 rpm for 5 min. After centrifugation, the supernatant was aliquoted, and the levels of inflammatory cytokines IL-6 and IL-12 in the bronchoalveolar lavage fluid were determined using ELISA kits.
Statistical analysis was performed using SPSS software. Measurement data were expressed as mean ± standard deviation. One-way ANOVA was used for intergroup comparisons. For data with homogeneous variance, LSD test was used; for data with heterogeneous variance, Dunnett-t test was used. A value of P < 0.05 was considered statistically significant.

[6] = bronchoalveolar lavage fluid, 0.3 mg/mL, 50 µL intratracheally once daily for 3 days

| SMILES | tear secretion [1] | PASI scores [2] | intraocular pressure after continuous ocular administration [3] | inflammatory response on the intestinal surface / intestinal symptoms [4] | Effects on inflammatory cytokines in bronchoalveolar lavage fluid of mice [5] | Wetting length of phenol red cotton threads (mm) D0 ([1]; D0, 1 mg/mL, 50 µL/eye, 3 times a day for 14 days) [mm] | Wetting length of phenol red cotton threads (mm) D3 ([1]; D3, 1 mg/mL, 50 µL/eye, 3 times a day for 14 days) [mm] | Wetting length of phenol red cotton threads (mm) D7 ([1]; D7, 1 mg/mL, 50 µL/eye, 3 times a day for 14 days) [mm] | Wetting length of phenol red cotton threads (mm) D15 ([1]; D15, 1 mg/mL, 50 µL/eye, 3 times a day for 14 days) | PASI score [2] | Intraocular pressure of guinea pigs (mmHg) D0 [3] [mmHg] | Intraocular pressure of guinea pigs (mmHg) D7 [3] [mmHg] | Intraocular pressure of guinea pigs (mmHg) D14 [3] [mmHg] | Intraocular pressure of guinea pigs (mmHg) D21 [3] [mmHg] | Intraocular pressure of guinea pigs (mmHg) D28 [3] [mmHg] | Macroscopic injury score ([4]; colon, day 5 after TNBS, 2 mg/kg once a day (compounds intraintestinally, dexamethasone by gavage)) | IL-6 [5, 6] [pg/mL] | IL-12 [5, 6] [pg/mL] |
| --- | --- | --- | --- | --- | --- | --- | --- | --- | --- | --- | --- | --- | --- | --- | --- | --- | --- | --- |
| C[C@]12C=CC(=O)C=C1CC[C@H]1[C@@H]3C[C@H]4OC(c5ccc(COC6CCOC6=O)cc5)O[C@@]4(C(=O)CO)[C@@]3(C)C[C@H](O)[C@@]12Cl (stereo partly drawn) [Compound 22, (6aS,6bR,7S,8aS,8bS,11aR,12aS,12bS)-6b-Chloro-7-hydroxy-8b-(2-hydroxyacetyl)-6a,8a-dimethyl-10-(4-(((2-oxotetrahydrofuran-3-yl)oxy)methyl)phenyl)-1,2,6a,6b,7,8,8a,8b,11a,12,12a,12b-do decahydro-4H-naphtho[2',1':4,5]indeno[1,2-d][1,3]dioxol-4-one] | significantly increased the tear secretion | significantly decreased PASI scores on day 7 | no abnormal intraocular pressure observed | significantly alleviated the intestinal symptoms in inflammatory bowel disease model rats | pharmacological effects similar to those of compound 23 | – | – | – | – | – | – | – | – | – | – | – | – | – |
| C[C@]12C=CC(=O)C=C1CC[C@H]1[C@@H]3C[C@H]4OC(c5ccc(CSC6CCOC6=O)cc5)O[C@@]4(C(=O)CO)[C@@]3(C)C[C@H](O)[C@@]12Cl (stereo partly drawn) [Compound 23, (6aS,6bR,7S,8aS,8bS,11aR,12aS,12bS)-6b-Chloro-7-hydroxy-8b-(2-hydroxyacetyl)-6a,8a-dimethyl-10-(4-(((2-oxotetrahydrofuran-3-yl)thio)methyl)phenyl)-1,2,6a,6b,7,8,8a,8b,11a,12,12a,12b-do decahydro-4H-naphtho[2',1':4,5]indeno[1,2-d][1,3]dioxol-4-one] | significantly increased the tear secretion on day 15 | PASI scores significantly decreased on day 7 | no abnormal intraocular pressure was observed | significantly inhibited the inflammatory response on the intestinal surface | extremely significantly decreased the levels of IL-6 and IL-12 in mice | 28.24 ± 6.22 | 29.4 ± 4.63 | 31.88 ± 6.20 | 36.05 ± 5.74" mm | 3.8 ± 1.0 | 13.5 ± 0.6 | 15.3 ± 1.7 | 15.3 ± 1.5 | 15.3 ± 2.2 | 14.9 ± 1.6 | 4.83 ± 1.10" | 11.1 ± 5.5 | 7.0 ± 3.9 |
| C[C@]12C=CC(=O)C=C1[C@@H](F)C[C@H]1[C@@H]3C[C@H]4OC(c5ccc(CSC6CCOC6=O)cc5)O[C@@]4(C(=O)OCF)[C@@]3(C)C[C@H](O)[C@@]12F (stereo partly drawn) [Compound 36, Fluoromethyl (2S,6aS,6bR,7S,8aS,8bS,11aR,12aS,12bS)-2,6b-difluoro-7-hydroxy-6a,8a-dimethyl-4-oxo-10-(4-( ((2-oxotetrahydrofuran-3-yl)thio)methyl)phenyl)-1,2,4,6a,6b,7,8,8a,11a,12,12a,12b-dodecahydro-8bH-naphtho[2',1':4,5]indeno[1,2-d][1,3]dioxole-8b-carboxylate] | significantly increased the tear secretion | significantly decreased PASI scores on day 7 | no abnormal intraocular pressure observed | significantly alleviated the intestinal symptoms in inflammatory bowel disease model rats | pharmacological effects similar to those of compound 23 | – | – | – | – | – | – | – | – | – | – | – | – | – |
| C[C@]12C=CC(=O)C=C1CC[C@H]1[C@@H]3C[C@H]4OC(c5ccc(CSC6CCOC6=O)cc5)O[C@@]4(C(=O)CO)[C@@]3(C)C[C@H](O)[C@@]12F (stereo partly drawn) [Compound 17, (6aS,6bR,7S,8aS,8bS,11aR,12aS,12bS)-6b-Fluoro-7-hydroxy-8b-(2-hydroxyacetyl)-6a,8a-dimethyl-10-(4-(((2-oxotetrahydrofuran-3-yl)thio)methyl)phenyl)-1,2,6a,6b,7,8,8a,8b,11a,12,12a,12b-do decahydro-4H-naphtho[2',1':4,5]indeno[1,2-d][1,3]dioxol-4-one] | significantly increased the tear secretion | PASI scores significantly decreased on day 7 | no abnormal intraocular pressure was observed | significantly alleviated the intestinal symptoms in inflammatory bowel disease model rats | pharmacological effects similar to those of compound 23 | – | – | – | – | 4.5 ± 0.6 | 13.5 ± 0.6 | 16.0 ± 1.4 | 14.5 ± 1.9 | 13.3 ± 2.5 | 14.3 ± 1.5 | – | – | – |
| C[C@]12C=CC(=O)C=C1CC[C@H]1[C@@H]3C[C@H]4OC(c5ccc(CSC6CCOC6=O)nc5)O[C@@]4(C(=O)CO)[C@@]3(C)C[C@H](O)[C@@]12Cl (stereo partly drawn) [Compound 48, (6aS,6bR,7S,8aS,8bS,11aR,12aS,12bS)-6b-Chloro-7-hydroxy-8b-(2-hydroxyacetyl)-6a,8a-dimethyl-10-(6-(((2-oxotetrahydrofuran-3-yl)thio)methyl)pyridin-3-yl)-1,2,6a,6b,7,8,8a,8b,11a,12,12a,12 b-dodecahydro-4H-naphtho[2',1':4,5]indeno[1,2-d][1,3]dioxol-4-one] | significantly increased the tear secretion | significantly decreased PASI scores on day 7 | no abnormal intraocular pressure observed | significantly alleviated the intestinal symptoms in inflammatory bowel disease model rats | pharmacological effects similar to those of compound 23 | – | – | – | – | – | – | – | – | – | – | – | – | – |
